# Source: patent publication US9096593B2, “Compounds and methods for kinase modulation, and indications therefor” (Plexxikon Inc., priority 2009, dated 2015)
# Like-named read-outs stand apart in the source and are kept apart here.
# Assays:
# [1] = target: Fms kinase (Homo sapiens (Human), UniProt P07333); assay: Fms kinase biochemical activity assay (AlphaScreen, biotin-(E4Y)10 phosphorylation)
# Method in brief: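 Recombinant human Fms phosphorylating 30 nM biotin-(E4Y)10 with 100 μM ATP (1 ng/well enzyme) in Hepes pH 7.5 buffer with Mg2+/Mn2+, 5% DMSO, 20 min at 30 °C. Phosphotyrosine detected by AlphaScreen streptavidin donor/PY20 acceptor beads; IC50 from signal versus compound concentration.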
# [2] = target: c-Kit kinase (Homo sapiens (Human), UniProt P10721); assay: c-Kit kinase biochemical activity assay (AlphaScreen, biotin-(E4Y)10 phosphorylation)
# Method: In one assay the biochemical activity IC50 values are determined with respect to inhibition of c-Kit kinase activity, where inhibition of phosphorylation of a peptide substrate is measured as a function of compound concentration. Compounds to be tested are dissolved in DMSO to a concentration of 20 mM. These are diluted 30 μL into 120 μL of DMSO (4 mM) and 1 μL is added to an assay plate. These are then serially diluted […] (50 μL to 100 μL DMSO) for a total of 8 points. Plates are prepared such that each kinase reaction is 20 μL in 1× kinase buffer (25 mM HEPES, pH 7.5, 2 mM MgCl2, 2 mM MnCl2, 0.01% Tween-20, 1 mM DTT, 0.01% BSA), 5% DMSO and 100 μM ATP. Substrate is 30 nM biotin-(E4Y)10 (Millipore). C-kit kinase (obtained from Millipore (#14-559) or is prepared as described in U.S. Patent Application Publication Number 2009/0076046, the disclosure of which is hereby incorporated by reference as it relates to this assay) is at 0.75 ng per sample. After incubation of the kinase reaction for 1 hour at room temperature, 5 μL of donor beads (Streptavidin coated beads (Perkin Elmer Life Science) final concentration 10 μg/mL) in stop buffer (25 mM Hepes pH 7.5, 100 mM EDTA, 0.01% BSA) is added, the sample is mixed and incubated for 20 minutes at room temperature before adding 5 μL of acceptor beads (PY20 coated beads (Perkin Elmer Life Science) final concentration 10 μg/mL) in stop buffer. The samples are incubated for 60 minutes at room temperature and the signal per well is read on Envision reader. […] The signal vs. compound concentration is used to determine the IC50.
# [3] = target: BCR-FMS/BaF3 cells (Homo sapiens, UniProt P07333); assay: BCR-FMS/BaF3 cell proliferation assay (ATPlite); type: cell-based
# Method: Compounds are assessed in a variety of cell based assays. For example BCR-FMS/BaF3, BCR-KIT/BaF3, M-NFS-60, M-07e, and BAC1.2F5 cell proliferation assays are used to assess inhibitory activity of Fms or Kit and MV-4-11 cell proliferation assay is used to assess inhibitory activity in Flt-3. […] On day 1, cells are counted, then centrifuged in a conical tube for 5 minutes at 1000 rpm. The supernatant is removed and cells are re-suspended as follows: • BCR-FMS/BaF3 and BCR-KIT/BaF3: resuspend in growth media+1 mg/mL G418 (without WEHI/IL-3) to 2×10^5 cells/mL. • M-NFS-60: resuspend in growth media +62 ng/mL murine M-CSF to 5×10^5 cells/mL. • M-07e: resuspend in growth media +200 ng/mL human SCF to 5×10^5 cells/mL. • BAC1.2F5: resuspend in growth media +36 ng/mL murine M-CSF to 1.4×10^5 cells/mL. • MV-4-11: resuspend in growth media +10% FBS to 5×10^5 cells/mL. […] On day 2, compound at a maximum concentration of 5 mM is serially diluted 1:3 for a total of 8 point titration with DMSO as a control. A 1 μL aliquot of each dilution point is added to 249 μL growth media and 50 μL is added to a well containing cells, providing 10 μM compound for the maximum concentration point. The cells are incubated for 3 days at 37° C. in 5% CO2. […] ATPlite is added to each well as follows: • BCR-FMS/BaF3 and BCR-KIT/BaF3: 25 μL per well. • M-NFS-60: 25 μL per well. • M-07c: 40 μL per well. • BAC1.2F5: 50 μL per well. • MV-4-11: 40 μL per well. The cells are incubated at room temperature for 10 minutes, then luminescence is read on Safire reader. The measured luminescence correlates directly with cell number, such that the reading as a function of compound concentration is used to determine the IC50 value.
# [4] = read-out: Biochemical activity (IC50 μM) Fms
# [5] = BCR-FMS/BaF3 cells; read-out: BCR/BaF3 (IC50 μM) Fms
# [6] = Kit IC50/Fms IC50, BCR-KIT/BaF3 vs BCR-FMS/BaF3 cells
# [7] = read-out: BCR/BaF3 (IC50 μM) Fms; BCR-FMS/BaF3 cells
# [8] = 100 μM ATP, read-out: Biochemical (IC50 μM) Fms
# [9] = BCR-FMS/BaF3 cells, 3 days; read-out: Cell based (IC50 μM) BCR/BaF3 (Fms)
# [10] = read-out: Cell based (IC50 μM) BCR/BaF3 (Fms); BCR-FMS/BaF3 cells, 3 days
# Chain of Fms kinase (P07333 20-972): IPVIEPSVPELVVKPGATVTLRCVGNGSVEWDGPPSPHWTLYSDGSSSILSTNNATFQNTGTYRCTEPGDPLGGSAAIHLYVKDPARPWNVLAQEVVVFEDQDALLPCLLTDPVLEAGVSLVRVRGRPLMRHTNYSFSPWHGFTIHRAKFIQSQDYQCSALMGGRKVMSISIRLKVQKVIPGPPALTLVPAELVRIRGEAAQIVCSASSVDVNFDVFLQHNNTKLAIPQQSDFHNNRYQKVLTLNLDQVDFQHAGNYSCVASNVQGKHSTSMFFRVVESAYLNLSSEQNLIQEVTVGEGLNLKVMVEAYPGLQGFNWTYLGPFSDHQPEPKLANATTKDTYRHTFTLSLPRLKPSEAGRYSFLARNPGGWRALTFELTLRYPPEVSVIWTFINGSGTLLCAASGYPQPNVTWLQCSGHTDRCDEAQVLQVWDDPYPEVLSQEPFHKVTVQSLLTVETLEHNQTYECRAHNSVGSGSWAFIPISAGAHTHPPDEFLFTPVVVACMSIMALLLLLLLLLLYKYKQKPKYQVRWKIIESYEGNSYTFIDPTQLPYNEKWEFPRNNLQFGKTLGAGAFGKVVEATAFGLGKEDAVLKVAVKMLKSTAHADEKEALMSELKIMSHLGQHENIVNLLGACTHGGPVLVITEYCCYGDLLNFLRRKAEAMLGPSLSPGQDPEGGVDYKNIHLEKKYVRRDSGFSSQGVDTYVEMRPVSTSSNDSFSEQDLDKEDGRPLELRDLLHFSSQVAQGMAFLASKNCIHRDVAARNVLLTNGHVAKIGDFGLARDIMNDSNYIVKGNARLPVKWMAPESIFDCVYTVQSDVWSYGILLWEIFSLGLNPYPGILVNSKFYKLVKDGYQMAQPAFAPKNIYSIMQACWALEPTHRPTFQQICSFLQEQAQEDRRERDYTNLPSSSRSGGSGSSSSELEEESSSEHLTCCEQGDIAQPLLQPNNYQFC
# Chain of BCR-FMS/BaF3 cells (P07333 20-972 limits assumed, change not shown): as the sequence (P07333 20-972) above
# Chain of c-Kit kinase (P10721 26-976): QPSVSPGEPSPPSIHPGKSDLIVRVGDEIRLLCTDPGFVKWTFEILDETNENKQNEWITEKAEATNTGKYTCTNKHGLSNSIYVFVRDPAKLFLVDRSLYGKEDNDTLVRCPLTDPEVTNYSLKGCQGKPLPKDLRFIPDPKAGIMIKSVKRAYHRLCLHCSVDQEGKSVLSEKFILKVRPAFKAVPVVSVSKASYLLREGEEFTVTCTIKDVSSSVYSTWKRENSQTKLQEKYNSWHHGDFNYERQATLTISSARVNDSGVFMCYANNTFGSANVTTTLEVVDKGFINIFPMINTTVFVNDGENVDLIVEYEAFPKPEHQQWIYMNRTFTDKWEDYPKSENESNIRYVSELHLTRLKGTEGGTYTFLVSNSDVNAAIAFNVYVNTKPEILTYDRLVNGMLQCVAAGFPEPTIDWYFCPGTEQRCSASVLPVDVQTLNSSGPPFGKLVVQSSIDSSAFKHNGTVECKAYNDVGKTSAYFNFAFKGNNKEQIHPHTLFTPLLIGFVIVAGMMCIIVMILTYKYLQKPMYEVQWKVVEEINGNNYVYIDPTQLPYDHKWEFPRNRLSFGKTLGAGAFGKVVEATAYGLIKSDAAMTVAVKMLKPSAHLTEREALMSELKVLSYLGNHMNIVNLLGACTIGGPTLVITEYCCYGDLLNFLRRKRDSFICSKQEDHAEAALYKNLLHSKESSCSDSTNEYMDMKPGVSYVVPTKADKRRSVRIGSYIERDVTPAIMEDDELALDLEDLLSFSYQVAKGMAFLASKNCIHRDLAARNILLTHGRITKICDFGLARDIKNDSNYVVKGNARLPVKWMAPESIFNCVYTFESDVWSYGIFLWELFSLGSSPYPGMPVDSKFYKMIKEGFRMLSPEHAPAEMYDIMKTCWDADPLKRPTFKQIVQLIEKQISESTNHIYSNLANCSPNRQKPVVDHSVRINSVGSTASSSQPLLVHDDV
Structure (SMILES),Biochemical activity selectivity (Kit IC50/Fms IC50) [1],"IC50 [1, 4] [µM]",IC50 [2] [µM],"IC50 [3, 5] [µM]","BCR/BaF3 selectivity (Kit IC50/Fms IC50) [3, 6]","IC50 [3, 7] [µM]","IC50 [1, 8] [µM]","IC50 [3, 9] [µM]","IC50 [3, 10] [µM]"
"COc1ccc(CNc2ncc(Cc3c[nH]c4ncc(C)cc34)cc2C)cn1 [Compound P-1554, (6-Methoxy-pyridin-3-ylmethyl)-[3-methyl-5-(5-methyl-1H-pyrrolo[2,3-b]pyridin-3-ylmethyl)-pyridin-2-yl]-amine]",<20,< 0.1,< 0.1,< 0.1,<20,,,,
"COc1ccc(CNc2ncc(Cc3c[nH]c4ncc(C)cc34)cc2F)cn1 [Compound P-1562, [3-Fluoro-5-(5-methyl-1H-pyrrolo[2,3-b]pyridin-3-ylmethyl)-pyridin-2-yl]-(6-methoxy-pyridin-3-ylmethyl)-amine]",<20,< 0.1,< 0.1,,<20,< 0.1,,,
"COc1ccc(CNc2ccc(Cc3c[nH]c4ncc(F)cc34)c(F)n2)cn1 [Compound P-1622, [6-Fluoro-5-(5-fluoro-1H-pyrrolo[2,3-b]pyridin-3-ylmethyl)-pyridin-2-yl]-(6-methoxy-pyridin-3-ylmethyl)-amine]",>20,< 0.1,> 0.1,,>20,< 0.1,,,
"COc1ncc(F)cc1CNc1ccc(Cc2c[nH]c3ncc(NC(C)=O)cc23)c(F)n1 [Compound P-1669, N-(3-{2-fluoro-6-[(5-fluoro-2-methoxy-pyridin-3-ylmethyl)-amino]-pyridin-3-ylmethyl}-1H-pyrrolo[2,3-b]pyridin-5-yl)-acetamide]",,,,,>20,< 0.1,,,
"CS(=O)(=O)Nc1cnc2[nH]cc(Cc3ccc(NCc4ccc(Cl)nc4)nc3F)c2c1 [Compound P-1679, N-(3-{6-[(6-Chloro-pyridin-3-ylmethyl)-amino]-2-fluoro-pyridin-3-ylmethyl}-1H-pyrrolo[2,3-b]pyridin-5-yl)-methanesulfonamide]",>20,< 0.1,> 0.1,,>20,< 0.1,,,
"Fc1cncc(CNc2ccc(Cc3c[nH]c4ncc(Cl)cc34)c(F)n2)c1 [Compound P-2001, [5-(5-Chloro-1H-pyrrolo[2,3-b]pyridin-3-ylmethyl)-6-fluoro-pyridin-2-yl]-(5-fluoro-pyridin-3-ylmethyl)-amine]",>20,< 0.1,> 0.1,,>20,< 0.1,,,
Clc1cnc2[nH]cc(Cc3ccc(NCc4ccc(Cl)nc4)nc3)c2c1 [Compound P-2003],<20,< 0.1,< 0.1,< 0.1,<20,,< 0.1,< 0.1,
"Fc1ccc(CNc2ccc(Cc3c[nH]c4ncc(Cl)cc34)cn2)cn1 [Compound P-2004, [5-(5-chloro-1H-pyrrolo[2,3-b]pyridin-3-ylmethyl)-pyridin-2-yl]-(6-fluoro-pyridin-3-ylmethyl)-amine]",<20,< 0.1,< 0.1,,<20,< 0.1,< 0.1,,< 0.1
"Fc1ccc(CNc2ncc(Cc3c[nH]c4ncc(Cl)cc34)cn2)cc1F [Compound P-2008, [5-(5-Chloro-1H-pyrrolo[2,3-b]pyridin-3-ylmethyl)-pyrimidin-2-yl]-(3,4-difluoro-benzyl)-amine]",<20,< 0.1,< 0.1,< 0.1,<20,,,,
"Cc1cccc(CNc2ncc(Cc3c[nH]c4ncc(Cl)cc34)cn2)c1 [Compound P-2013, [5-(5-Chloro-1H-pyrrolo[2,3-b]pyridin-3-ylmethyl)-pyrimidin-2-yl]-(3-methyl-benzyl)-amine]",<20,< 0.1,< 0.1,< 0.1,<20,,,,
"Cc1cnc2[nH]cc(Cc3ccc(NCc4ccc(C(F)(F)F)nc4)nc3)c2c1 [Compound P-2019, [5-(5-Methyl-1H-pyrrolo[2,3-b]pyridin-3-ylmethyl)-pyridin-2-yl]-(6-trifluoromethyl-pyridin-3-ylmethyl)-amine]",<20,< 0.1,< 0.1,,<20,< 0.1,< 0.1,,< 0.1
"COc1cnc2[nH]cc(Cc3ccc(NCc4cncc(F)c4)nc3F)c2c1 [Compound P-2028, [6-Fluoro-5-(5-methoxy-1H-pyrrolo[2,3-b]pyridin-3-ylmethyl)-pyridin-2-yl]-(5-fluoro-pyridin-3-ylmethyl)-amine]",>20,< 0.1,> 0.1,,>20,< 0.1,,,
"COc1ccc(CNc2ccc(Cc3c[nH]c4ncc(C)cc34)c(F)n2)cn1 [Compound P-2029, [6-Fluoro-5-(5-methyl-1H-pyrrolo[2,3-b]pyridin-3-ylmethyl)-pyridin-2-yl]-(6-methoxy-pyridin-3-ylmethyl)-amine]",>20,< 0.1,> 0.1,,>20,< 0.1,< 0.1,,< 0.1
"COc1cnc2[nH]cc(Cc3ccc(NCc4ccccc4Cl)nc3F)c2c1 [Compound P-2034, (2-chloro-benzyl)-[6-fluoro-5-(5-methoxy-1H-pyrrolo[2,3-b]pyridin-3-ylmethyl)-pyridin-2-yl]-amine]",,,,,,,< 0.1,< 0.1,
"COc1cnc2[nH]cc(Cc3ccc(NCc4cccnc4OC)nc3F)c2c1 [Compound P-2043, [6-Fluoro-5-(5-methoxy-1H-pyrrolo[2,3-b]pyridin-3-ylmethyl)-pyridin-2-yl]-(2-methoxy-pyridin-3-ylmethyl)-amine]",>20,,,,>20,< 0.1,,,
"Fc1nc(NCc2ccc(Cl)cn2)ccc1Cc1c[nH]c2ncccc12 [Compound P-2044, (5-Chloro-pyridin-2-ylmethyl)-[6-fluoro-5-(1H-pyrrolo[2,3-b]pyridin-3-ylmethyl)-pyridin-2-yl]-amine]",,,,,,,< 0.1,,< 0.1
"Cc1cc(CNc2ccc(Cc3c[nH]c4ncc(Cl)cc34)c(F)n2)ccn1 [Compound P-2075, [5-(5-Chloro-1H-pyrrolo[2,3-b]pyridin-3-ylmethyl)-6-fluoro-pyridin-2-yl]-(2-methyl-pyridin-4-ylmethyl)-amine]",>20,< 0.1,> 0.1,,,,,,
